Assay results reported in patent publication US9745328B2, “Flap modulators” (JANSSEN PHARMACEUTICA NV, priority 2013, dated 2017).
Where a name gives a salt, the structure may show the parent alone.

molecular target: human FLAP (Homo sapiens (Human), UniProt P20292); test: FLAP binding assay (HTRF format); conditions: Table 6 (additional runs), human FLAP wild type
Procedure: The ability of the compounds of the present invention to treat a FLAP-mediated disease and/or disorder, or associated symptoms or complications thereof, was determined using the following procedures. Binding assay data represent the average value obtained from two different assay plates, with samples run in duplicate on each plate. Human whole blood assay data represent a single replicate on an assay plate using whole blood from at least one healthy donor.
Data are expressed as a HTRF ratio.

human FLAP, sequence (P20292 whole entry): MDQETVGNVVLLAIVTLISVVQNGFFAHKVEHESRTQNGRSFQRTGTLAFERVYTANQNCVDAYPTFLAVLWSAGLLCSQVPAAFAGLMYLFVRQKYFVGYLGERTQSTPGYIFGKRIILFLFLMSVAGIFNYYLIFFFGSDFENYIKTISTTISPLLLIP

Ki [nM]	Structure (SMILES)
3.3	Nc1cnc(-c2ccc(-c3ccccc3CSc3ccncn3)cc2F)cn1 [Example 243, 5-(3-fluoro-2′-((pyrimidin-4-ylthio)methyl)-[1,1′-biphenyl]-4-yl)pyrazin-2-amine hydrochloride]
0.4	CC(C)(CCO)NS(=O)(=O)c1ccccc1-c1ccc(-c2cnc(N)cn2)c(F)c1 [Example 102, 4′-(5-Aminopyrazin-2-yl)-3′-fluoro-N-(3-hydroxy-1,1-dimethylpropyl)biphenyl-2-sulfonamide]
354	CS(=O)(=O)NS(=O)(=O)c1ccccc1-c1ccc(-c2cnc(N)cn2)c(F)c1 [Example 96, 4′-(5-Aminopyrazin-2-yl)-3′-fluoro-N-(methylsulfonyl)biphenyl-2-sulfonamide]
1.3	Nc1ncc(-c2ccc(-c3ccccc3S(=O)(=O)N3CC(O)(C(F)(F)F)C3)cc2F)cn1 [Example 315]
4.3	CCN(CC)S(=O)(=O)c1ccccc1-c1ccc(-c2ccc(N)nc2)c(F)c1 [Example 343, 4′-(6-aminopyridin-3-yl)-N,N-diethyl-3′-fluoro-[1,1′-biphenyl]-2-sulfonamide]
0.9	CCC(C)(C)NS(=O)(=O)c1ccccc1-c1ccc(-c2ccc(N)nc2)c(F)c1 [Example 349, 4′-(6-aminopyridin-3-yl)-3′-fluoro-N-(tert-pentyl)-[1,1′-biphenyl]-2-sulfonamide]
0.8	Nc1cnc(-c2ccc(-c3ccccc3S(=O)(=O)N3CCC(c4c[nH]cn4)CC3)cc2F)cn1 [Example 164, 5-(3-Fluoro-2′-{[4-(1H-imidazol-4′-yl)piperidin-1-yl]sulfonyl}biphenyl-4-yl)pyrazin-2-amine]
8.8	CS(=O)(=O)N1CCN(S(=O)(=O)c2ccccc2-c2ccc(-c3cnc(N)cn3)c(F)c2)CC1 [Example 56, 5-(3-Fluoro-2′-{[4-(methylsulfonyl)piperazin-1-yl]sulfonyl}biphenyl-4-yl)pyrazin-2-amine]
1.9	CCC(C)(C)NS(=O)(=O)c1ccccc1-c1ccc(-c2cnc(N)cn2)c(F)c1 [Example 12, 4′-(5-Aminopyrazin-2-yl)-N-(1,1-dimethylpropyl)-3′-fluorobiphenyl-2-sulfonamide]
0.7	Nc1cnc(-c2ccc(-c3ccccc3S(=O)(=O)N[C@@H](CO)[C@@H](O)c3ccccc3)cc2F)cn1 [Example 78, 4′-(5-Aminopyrazin-2-yl)-3′-fluoro-N-[(1S,2S)-2-hydroxy-1-(hydroxymethyl)-2-phenylethyl]biphenyl-2-sulfonamide]

same assay, conditions: human FLAP wild type, Table 6 (additional runs)

Ki [nM]	Structure (SMILES)
20.2	N#Cc1cc(Oc2ccccc2-c2ccc(-c3cnc(N)nc3)c(F)c2)ccn1 [Example 538, 4-{[4′-(2-Aminopyrimidin-5-yl)-3′-fluorobiphenyl-2-yl]oxy}pyridine-2-carbonitrile]
162	Cc1cc(N)nc(Oc2ccccc2-c2ccc(-c3cnc(N)nc3)c(F)c2)n1 [Example 617, 5-{2′-[(4-Amino-6-methylpyrimidin-2-yl)oxy]-3-fluorobiphenyl-4-yl}pyrimidin-2-amine]
3.7	CC(CO)NS(=O)(=O)c1ccccc1-c1ccc(-c2cnc(N)c(C#N)n2)c(F)c1 (stereo in doubt) [Example 410, 4′-(5-amino-6-cyanopyrazin-2-yl)-3′-fluoro-N-[(1R)-2-hydroxy-1-methylethypiphenyl-2-sulfonamide]
65.5	N#Cc1nc(-c2ccc(-c3ccccc3S(=O)(=O)N3CCNC(=O)C3)cc2F)cnc1N [Example 414, 3-Amino-6-{3-fluoro-2′-[(3-oxopiperazin-1-yl)sulfonyl]biphenyl-4-yl}pyrazine-2-carbontrile]
0.4	Nc1cnc(-c2ccc(-c3ccc(C(F)(F)F)cc3Oc3ncccn3)cc2F)cn1 [Example 551, 5-[3-Fluoro-2′-(pyrimidin-2-yloxy)-4′-(trifluoromethyl)biphenyl-4-yl]pyrazin-2-amine]
332	Nc1cnc(-c2ccc(-c3ccccc3F)cc2F)cn1 [Example 468, 5-(2′,3-Difluorobiphenyl-4-yl)pyrazin-2-amine]

same assay, conditions: human FLAP wild type, a calculated value of 0.000 indicates Ki less than 1 nM

Ki [nM]	Structure (SMILES)
< 1	CC(C)(CCO)NS(=O)(=O)c1ccccc1-c1ccc(-c2cnc(N)cn2)c(F)c1 [Example 102, 4′-(5-Aminopyrazin-2-yl)-3′-fluoro-N-(3-hydroxy-1,1-dimethylpropyl)biphenyl-2-sulfonamide]
< 1	Nc1cnc(-c2ccc(-c3ccc(C(F)(F)F)cc3Oc3ncccn3)cc2F)cn1 [Example 551, 5-[3-Fluoro-2′-(pyrimidin-2-yloxy)-4′-(trifluoromethyl)biphenyl-4-yl]pyrazin-2-amine]
